# Values quoted from earlier work in patent US20110251239A1, “COMBINATION THERAPY FOR THE TREATMENT OF DEMENTIA” (EISAI INC., priority 2010, published 2011).
# How the values were obtained:
# [1] = test system: CYP450 enzymes (CYP1A2, -2A6, -2C9, -2D6, -2E1, -3A4)
# [2] = test system: cytochrome P450 isozymes CYP1A2, CYP2C9, CYP2E1 and CYP3A4/5
smiles,measurement,setting,value
"CC12CC3CC(C)(C1)CC(N)(C3)C2 [memantine, 1-amino-3,5-dimethyl adamantane]",inhibition of CYP450 enzymes,[1],minimal inhibition
same,induction of cytochrome P450 isozymes,[2],does not induce
